Structures are written as SMILES. “Also recorded” adds a separate entry of the source.

In experiment [1] the target is T1, 20 S human housekeeping proteasome (Homo sapiens, UniProt P25787+P25789).
T1 construct: purified from erythrocytes; purchased Enzo Life Sciences, Inc. (Farmingdale, N.Y.); host or cells: human erythrocytes
Kind of experiment: ChT-L peptidase activity of 20 S proteasome activated with Rpt5 peptide. It is filed as biochemical. Conditions: ChT-L, Suc-LLVY-AMC substrate, 20 S activated with Rpt5 peptide; read-out: IC50. How it is done:
(§1) Human housekeeping 20 S and 26 S and complexes purified from erythrocytes were purchased from Enzo Life Sciences, Inc. (Farmingdale, N.Y.). The 1 mg/ml stock 20 S proteasome was diluted to 0.2 mg/ml working solution in 50 mM Tris/HCl, pH 8 containing 20% glycerol (dilution buffer). For the 26 S proteasome stock, the dilution buffer was supplemented with 2 mM ATP, 1 mM MgCl2, and 1 mM DTT (dithiothreitol). The ChT-L peptidase activity was measured as arbitrary intensity units of fluorescence emitted by 7-amino-4-methylcoumarin (AMC) released from the canonical model peptide substrate succinyl-LeuLeuValTyr-methylcoumarin (SucLLVY-MCA; Bachem Bioscience Inc., Philadelphia, Pa.), used at concentration of 100 μM. Free AMC (Sigma-Aldrich, St. Louis, Mo.) was used as the standard. The Rpt5 C-terminal peptide was synthesized (standard solid-phase peptide chemistry) and purified to at least 98% purity by GenScript (Piscataway, N.J.). The Rpt5 peptide and the peptide substrate were dissolved in dimethylsulfoxide (DMSO) and such stock solutions were stored at −20° C. The total concentration of DMSO in final reaction mixtures never exceeded 3% (vol/vol).
The reaction was carried out in 96-well plates, in 100 μL of reaction mixture, for 1 hour at 37° C. In the case of 20 S proteasome, the reaction mixture consisted of 45 mM Tris/HCl, pH 8, 100 mM KCl with premixed 10 μM Rpt5 peptide and 100 μM Suc-LLVY-MCA, to which 200 ng (nearly […]) of proteasome and desired concentration of tested compounds in 1 μL of DMSO were added. To test the activity of 26 S proteasome under conditions challenging coordination of the three pairs of peptidase active centers, a mixture of three canonical substrates specific for the ChT-L (SucLLVY-MCA), trypsin-like (T-L; BocLRR-MCA) and caspase-like (Casp-L; Z-LLE-MCA) was used with each of the substrates at 33.3 μM (100 μM of the total substrate concentration). The reaction mixture in this case consisted of 50 mM Tris/HCl, pH 8, 20 mM NaCl, premixed with the substrates and 2 mM ATP, to which 200 ng (nearly 0.1 nmol) of the 26 S working solution and desired concentration of tested compounds in 0.5 μL of DMSO were added. The reaction rates were calculated from a linear segment of kinetic curves constructed from measurements in 1-minutes intervals (Fluoroskan Ascent plate reader; Thermo Fisher Scientific Inc., Waltham, Mass.). Reaction rates were calculated using a linear fit executed by Slope Analyzer and Enzyme Kinetics applications launched within Origin Pro 2017 (OriginLab). Specific activity of the control 20 S proteasome activated with the Rpt5 peptide was in the range of 1.4 to 2.3 nanomoles of AMC product released by 1 mg of 20 S per second (1.95±0.24; n=18). Specific activity of the control 26 S proteasome challenged with three substrates reached on average 0.28±0.06 nanomoles of AMC product released by 1 mg of the enzyme per second (n=6). For comparison, degradation of the canonical Suc-LLVY-MCA substrate by the control 26 S proteasome preceded with a rate in the range of 0.6-0.8 nanomoles of AMC released per mg of the enzyme per second. The data are presented as mean±SD or as a representative set from at least 3 independent experiments.
The compounds were evaluated using the 20 S human housekeeping proteasome. It was activated with the Rpt5 derived 10-residue peptide that contains the C-terminal HbYX (hydrophobic-Tyr-any AA) motif activating the proteasome in trans and to some extend mimic the activation by the 19 S regulatory particle (Osmulski and Gaczynska (2013) Molecular pharmacology 84: 104-113; Smith et al. (2006) J. Struct. Biol. 156: 72-83; Smith et al. (2007) Mol. Cell 27: 731-744). Proteolytic activity was monitored over time using a fluorogenic peptide substrate specific for the chymotrypsin-like active center (ChT-L, Suc-LLVY-AMC) in the presence of a concentration range of the inhibitors. […]

Experiment [2] has as its target T2, 26 S proteasome (Homo sapiens, UniProt P25787+P25789).
T2 construct: purified from erythrocytes; purchased Enzo Life Sciences, Inc. (Farmingdale, N.Y.); host or cells: human erythrocytes
Kind of experiment: 26 S proteasome challenged with mixture of three substrates (surrogate proteinase assay). It is filed as biochemical. Conditions: mixture of ChT-L, T-L and Casp-L substrates, 33.3 μM each; read-out: IC50, 26 S proteasome with substrates for all three peptidases. The method, then: as §1
The reaction was carried out in 96-well plates, in 100 μL of reaction mixture, for 1 hour at 37° C. In the case of 20 S proteasome, the reaction mixture consisted of 45 mM Tris/HCl, pH 8, 100 mM KCl with premixed 10 μM Rpt5 peptide and 100 μM Suc-LLVY-MCA, to which 200 ng (nearly […]) of proteasome and desired concentration of tested compounds in 1 μL of DMSO were added. […] The reaction rates were calculated from a linear segment of kinetic curves constructed from measurements in 1-minutes intervals (Fluoroskan Ascent plate reader; Thermo Fisher Scientific Inc., Waltham, Mass.). Reaction rates were calculated using a linear fit executed by Slope Analyzer and Enzyme Kinetics applications launched within Origin Pro 2017 (OriginLab). […]

Experiment [3] relates to Human multiple myeloma RPMI 8226 cells. The experiment in a line: Proliferation of RPMI 8226 cells, live cell count by Trypan Blue exclusion. It is filed as cell-based. Conditions: RPMI 8226, 0.2 μM, 24 hours, read-out: cell proliferation, % of control. The method, then: Human multiple myeloma RPMI 8226 cells were purchased from American Type Culture Collection (ATCC; Manassas, Va.) and cultured according to ATCC specifications. […] The content of live cells was determined by excluding the Trypan Blue-stained cells. The cells were counted with TC20 Automated Cell Counter (Bio-Rad Laboratories, Hercules, Calif.) and EC50 was calculated with Origin Pro 2017 (OriginLab Corporation, Northampton, Mass.). When indicated, the cells were harvested, washed twice in PBS, resuspended in dilution buffer and stored in −80° C. To prepare crude lysates the thawed preparations were vortexed with glass beads and centrifuged for 5 min 5,000×g (4° C.). The supernate was centrifuged for 20 min 14,000×g. The resulting supernate was used as “crude lysate.” SDS-PAGE was carried in 12% acrylamide, Tris-glycine gels from Invitrogen. Chameleon Duo (Li-Cor) and Rainbow RPN800E (GE Healthcare) molecular weight standards were separated on each gel alongside lysates. The proteins were transferred to nitrocellulose membrane in a semi-dry system. The membranes were probed with specific primary antibodies from Life Technologies (S6, PS6) and Li-Cor (COX IV), and then with secondary antibodies from Li-Cor. In each experiment visualization of S6, PS6 and COX IV was performed on the same membrane with Odyssey Infrared Imaging System (Li-Cor).
The effects of compound 3 observed in vitro prompted its influence on the proliferation of cultured cancer cells to be tested, namely the multiple myeloma RPMI 8226 line. […] Such relatively low EC50, as compared to in vitro determined IC50 values for peptidase activities (2-3 μM; FIG. 3A and FIG. 3B) should come to no surprise. […] The in vitro readout of single peptidase activities is a useful and convenient measure of the catalytic prowess of proteasome. However, especially in the case of allosteric regulators, it may not fully reflect the important structural and functional effects.
Referring to FIG. […] The data are averages (±SD) of three-to-five independent experiments. […]

Experiment [4] addresses T3, mTOR (Homo sapiens, UniProt P42345+P62942).
T3 construct: endogenous in cells; host or cells: RPMI 8226 (ATCC)
The experiment in a line: Western blot of S6 phosphorylation in RPMI 8226 cells. It is filed as cell-based. Conditions: RPMI 8226, 24 hours; rapamycin 2 nM, compound 3 and B1 0.2 μM. How it is done:
(§2) Human multiple myeloma RPMI 8226 cells were purchased from American Type Culture Collection (ATCC; Manassas, Va.) and cultured according to ATCC specifications. […] The content of live cells was determined by excluding the Trypan Blue-stained cells. The cells were counted with TC20 Automated Cell Counter (Bio-Rad Laboratories, Hercules, Calif.) and EC50 was calculated with Origin Pro 2017 (OriginLab Corporation, Northampton, Mass.). When indicated, the cells were harvested, washed twice in PBS, resuspended in dilution buffer and stored in −80° C. To prepare crude lysates the thawed preparations were vortexed with glass beads and centrifuged for 5 min 5,000×g (4° C.). The supernate was centrifuged for 20 min 14,000×g. The resulting supernate was used as “crude lysate.” SDS-PAGE was carried in 12% acrylamide, Tris-glycine gels from Invitrogen. Chameleon Duo (Li-Cor) and Rainbow RPN800E (GE Healthcare) molecular weight standards were separated on each gel alongside lysates. The proteins were transferred to nitrocellulose membrane in a semi-dry system. The membranes were probed with specific primary antibodies from Life Technologies (S6, PS6) and Li-Cor (COX IV), and then with secondary antibodies from Li-Cor. In each experiment visualization of S6, PS6 and COX IV was performed on the same membrane with Odyssey Infrared Imaging System (Li-Cor). […]
A general note: A western blot detects proteins with antibodies after separation by electrophoresis.

Experiment [5] addresses T4, FKBP12 (Homo sapiens, UniProt P62942).
T4 construct: endogenous in cells; host or cells: RPMI 8226 (ATCC)
The experiment in a line: Suppression of rapamycin inhibition of S6 phosphorylation by competing for FKBP12. The experiment is classed as cell-based. Conditions: RPMI 8226, 24 hours; FK506 10 μM, compound 3 and B1 0.2 μM, with rapamycin. The method, then:
as §2

In experiment [6] the target is T5, native human 20 S core proteasome (Homo sapiens, UniProt P25787+P25789).
T5 construct: purified from erythrocytes; purchased Enzo Life Sciences, Inc. (Farmingdale, N.Y.); host or cells: human erythrocytes
Conditions: literature; cited from earlier work.

T4 sequence (P62942 whole entry): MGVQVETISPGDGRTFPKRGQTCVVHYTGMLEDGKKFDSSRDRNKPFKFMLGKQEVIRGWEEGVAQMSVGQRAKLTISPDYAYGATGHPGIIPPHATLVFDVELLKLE

Regarding `COc1cc(CCCOC(=O)[C@@H]2CCCCN2C(=O)C(=O)C2CCCCC2)cc(OC)c1OC` (racemic) [Compound B1], the IC50 (as a rule, the point on the concentration scale where inhibition reaches its midpoint) in experiment [1] was determined as 5.8 µM; in experiment [2] it was 4.6 µM. In addition, the activity at 0.2 µM in experiment [3] was in the range of 60 to 65%. In addition, the “activity of mTOR (phosphorylation of S6)” value in experiment [4] is reported as “neither B1 nor compound 3 affected the activity of mTOR; also recorded: did not inhibit the S6 phosphorylation”. Also, the “suppression of rapamycin inhibition of S6 phosphorylation (FKBP12 binding)” value in experiment [5] is “did not mimic the actions of FK506”.
As to `CCOC(=O)[C@]1(c2ccccc2)N=C(c2ccc(OC)cc2)N(Cc2ccccc2)[C@@H]1c1ccc(NCc2ccccc2)cc1` [TCH-165], the “contribution of closed forms in 20 S particles population” value in experiment [6] was “induced a strong decrease in contribution of the closed forms”.

Source of the values: patent publication US11345659B2, “Pipecolic esters for inhibition of the proteasome” (THE BOARD OF REGENTS OF THE UNIVERSY OF TEXAS SYSTEM, priority 2018, dated 2022).
